Laboratory results taken from PubChem BioAssay AID2060902 (Molecular Pharmacology Branch, DTP, NCI, 2025).

System: 485368-065-R3-J5-PDC spheroids with HUVEC/MSC, viability
Test: Anticancer human tumor 485368-065-R3-J5-PDC patient-derived pancreatic carcinoma cell line growth inhibition [RAS]
Details: for IC50: curve of first compound; for viability, T/C: stronger effect = lower value
Summary of the method: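 Tumour cells grown as complex spheroids with HUVEC endothelial cells and mesenchymal stem cells, treated with RAS pathway inhibitor combinations. Each agent spans half-log steps from near clinical Cmax, or 10 microM where Cmax is unknown.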

[1] = second compound 0.00316 µM, first compound 0.0316 µM
[2] = second compound 0.00316 µM, first compound 0.1 µM
[3] = second compound 0.00316 µM, first compound 0.316 µM
[4] = second compound 0.00316 µM, first compound 1 µM
[5] = second compound 0.00316 µM, first compound 3.16 µM
[6] = second compound 0.00316 µM, first compound 10 µM
[7] = second compound 0.01 µM, first compound 0.0316 µM
[8] = second compound 0.01 µM, first compound 0.1 µM
[9] = second compound 0.01 µM, first compound 0.316 µM
[10] = second compound 0.01 µM, first compound 1 µM
[11] = second compound 0.01 µM, first compound 3.16 µM
[12] = second compound 0.01 µM, first compound 10 µM
[13] = second compound 0.0316 µM, first compound 0.0316 µM
[14] = second compound 0.0316 µM, first compound 0.1 µM
[15] = second compound 0.0316 µM, first compound 0.316 µM
[16] = second compound 0.0316 µM, first compound 1 µM
[17] = second compound 0.0316 µM, first compound 3.16 µM
[18] = second compound 0.0316 µM, first compound 10 µM
[19] = second compound 0.1 µM, first compound 0.0316 µM
[20] = second compound 0.1 µM, first compound 0.1 µM
[21] = second compound 0.1 µM, first compound 0.316 µM
[22] = second compound 0.1 µM, first compound 1 µM
[23] = second compound 0.1 µM, first compound 3.16 µM
[24] = second compound 0.1 µM, first compound 10 µM
[25] = second compound 0.316 µM, first compound 0.0316 µM
[26] = second compound 0.316 µM, first compound 0.1 µM
[27] = second compound 0.316 µM, first compound 0.316 µM
[28] = second compound 0.316 µM, first compound 1 µM
[29] = second compound 0.316 µM, first compound 3.16 µM
[30] = second compound 0.316 µM, first compound 10 µM
[31] = second compound 1 µM, first compound 0.0316 µM
[32] = second compound 1 µM, first compound 0.1 µM
[33] = second compound 1 µM, first compound 0.316 µM
[34] = second compound 1 µM, first compound 1 µM
[35] = second compound 1 µM, first compound 3.16 µM
[36] = second compound 1 µM, first compound 10 µM
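Further: spheroids exposed to agents for seven days before readout.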

`Cc1nc(N2CCC3(CC2)COC(C)C3N)c(CO)nc1Sc1ccnc(N)c1Cl` (stereo unspecified) + C=CC(=O)N1CCN(c2nc(OCC3CCCN3C)nc3c(F)c(-c4nc(N)cc(C)c4C(F)(F)F)c(Cl)cc23)C(C)C1 was tested, and the IC50 (second compound 0.00316 µM) was 7.82 µM, the IC50 (second compound 0.01 µM) was 7.83 µM and the IC50 (second compound 0.0316 µM) was > 10 µM. The IC50 (second compound 0.1 µM) was > 10 µM, the IC50 (second compound 0.316 µM) was > 10 µM and the IC50 (second compound 1 µM) was > 10 µM. The viability, T/C [1] was 101%, the viability, T/C [2] was 84.3% and the viability, T/C [3] was 83.6%. For the same molecule, the viability, T/C [4] was 68.2%, the viability, T/C [5] was 57.7% and the viability, T/C [6] was 47.6%. It also gave a viability, T/C [7] of 91.7%, a viability, T/C [8] of 89.4% and a viability, T/C [9] of 85.1%. The viability, T/C [10] was 72.8%, the viability, T/C [11] was 64.6% and the viability, T/C [12] was 45.9%. The viability, T/C [13] was 97.4%, the viability, T/C [14] was 93.1% and the viability, T/C [15] was 66.8%. For the same molecule, the viability, T/C [16] was 61.5%, the viability, T/C [17] was 63.1% and the viability, T/C [18] was 61.7%. It also gave a viability, T/C [19] of 86.4%, a viability, T/C [20] of 81.7% and a viability, T/C [21] of 75.6%. The viability, T/C [22] was 75.6%, the viability, T/C [23] was 70.7% and the viability, T/C [24] was 53.1%. For the same molecule, the viability, T/C [25] was 98.5%, the viability, T/C [26] was 89.7% and the viability, T/C [27] was 79.9%. It also gave a viability, T/C [28] of 77%, a viability, T/C [29] of 65.5% and a viability, T/C [30] of 51.2%. The viability, T/C [31] was 97.3%, the viability, T/C [32] was 95.8% and the viability, T/C [33] was 80.3%. For the same molecule, the viability, T/C [34] was 73.1%, the viability, T/C [35] was 58.7% and the viability, T/C [36] was 50.1%.
In the case of `NC1c2ccccc2OC12CCN(c1cnc3c(N4CCCc5ncccc54)n[nH]c3n1)CC2` (stereo unspecified) + C=CC(=O)N1CCN(c2nc(OCC3CCCN3C)nc3c(F)c(-c4nc(N)cc(C)c4C(F)(F)F)c(Cl)cc23)C(C)C1, the IC50 (second compound 0.00316 µM) is reported as > 10 µM, the IC50 (second compound 0.01 µM) is reported as > 10 µM and the IC50 (second compound 0.0316 µM) is reported as > 10 µM. For the same molecule, the IC50 (second compound 0.1 µM) was > 10 µM, the IC50 (second compound 0.316 µM) was > 10 µM and the IC50 (second compound 1 µM) was > 10 µM. It also gave a viability, T/C [1] of 83.2%, a viability, T/C [2] of 60.2% and a viability, T/C [3] of 78.5%. It also gave a viability, T/C [4] of 72.2%, a viability, T/C [5] of 67% and a viability, T/C [6] of 69.8%. It also gave a viability, T/C [7] of 87.7%, a viability, T/C [8] of 76.8% and a viability, T/C [9] of 67.5%. It also gave a viability, T/C [10] of 64.4%, a viability, T/C [11] of 77% and a viability, T/C [12] of 65.7%. It also gave a viability, T/C [13] of 81.2%, a viability, T/C [14] of 88.2% and a viability, T/C [15] of 64.1%. The viability, T/C [16] was 67.4%, the viability, T/C [17] was 72.5% and the viability, T/C [18] was 69.8%. For the same molecule, the viability, T/C [19] was 82.4%, the viability, T/C [20] was 75.8% and the viability, T/C [21] was 61.1%. It also gave a viability, T/C [22] of 74.9%, a viability, T/C [23] of 78% and a viability, T/C [24] of 74.6%. For the same molecule, the viability, T/C [25] was 72.1%, the viability, T/C [26] was 79.2% and the viability, T/C [27] was 75.1%. For the same molecule, the viability, T/C [28] was 64.1%, the viability, T/C [29] was 73.1% and the viability, T/C [30] was 60.4%. For the same molecule, the viability, T/C [31] was 84.7%, the viability, T/C [32] was 77.5% and the viability, T/C [33] was 72.9%. For the same molecule, the viability, T/C [34] was 60.6%, the viability, T/C [35] was 60.7% and the viability, T/C [36] was 54.9%.
For `Nc1ccn(C2OC(CO)C(O)C2(F)F)c(=O)n1` (stereo unspecified) + C=CC(=O)N1CCN(c2nc(OCC3CCCN3C)nc3c(F)c(-c4nc(N)cc(C)c4C(F)(F)F)c(Cl)cc23)C(C)C1, the IC50 (second compound 0.00316 µM) was 0.00642 µM, the IC50 (second compound 0.01 µM) was 0.00643 µM and the IC50 (second compound 0.0316 µM) was 0.0065 µM. It also gave an IC50 (second compound 0.1 µM) of 0.00618 µM, an IC50 (second compound 0.316 µM) of 0.00626 µM and an IC50 (second compound 1 µM) of 0.0061 µM. For the same molecule, the viability, T/C (second compound 0.00316 µM, first compound 0.00316 µM) was 107%, the viability, T/C (second compound 0.00316 µM, first compound 0.01 µM) was 14.7% and the viability, T/C [1] was 10.7%. The viability, T/C [2] was 9.52%, the viability, T/C [3] was 8.08% and the viability, T/C [4] was 10.4%. For the same molecule, the viability, T/C (second compound 0.01 µM, first compound 0.00316 µM) was 104%, the viability, T/C (second compound 0.01 µM, first compound 0.01 µM) was 16.8% and the viability, T/C [7] was 9.83%. It also gave a viability, T/C [8] of 7.76%, a viability, T/C [9] of 10.4% and a viability, T/C [10] of 9.94%. For the same molecule, the viability, T/C (second compound 0.0316 µM, first compound 0.00316 µM) was 103%, the viability, T/C (second compound 0.0316 µM, first compound 0.01 µM) was 18.4% and the viability, T/C [13] was 12.1%. It also gave a viability, T/C [14] of 9.22%, a viability, T/C [15] of 9.83% and a viability, T/C [16] of 10.7%. For the same molecule, the viability, T/C (second compound 0.1 µM, first compound 0.00316 µM) was 97%, the viability, T/C (second compound 0.1 µM, first compound 0.01 µM) was 16.3% and the viability, T/C [19] was 9.86%. For the same molecule, the viability, T/C [20] was 7.88%, the viability, T/C [21] was 9.19% and the viability, T/C [22] was 9.27%. For the same molecule, the viability, T/C (second compound 0.316 µM, first compound 0.00316 µM) was 101%, the viability, T/C (second compound 0.316 µM, first compound 0.01 µM) was 15.3% and the viability, T/C [25] was 8.44%. It also gave a viability, T/C [26] of 8.63%, a viability, T/C [27] of 9.97% and a viability, T/C [28] of 11%. The viability, T/C (second compound 1 µM, first compound 0.00316 µM) was 89.7%, the viability, T/C (second compound 1 µM, first compound 0.01 µM) was 20.2% and the viability, T/C [31] was 11.6%. The viability, T/C [32] was 9.69%, the viability, T/C [33] was 11.4% and the viability, T/C [34] was 11.8%.
